Tests used:
Assay in all cases: relative viability (nuclei count vs DMSO), 5 days (fraction); higher = more cells survive
XMD14-99 + OSI-027 = compound: CN1CCN(CC1)C2=CC(=C(C=C2)NC3=NC(=C(S3)C(=O)C4=C(C=CC=C4Cl)Cl)N)OC [XMD14-99] + COc1cccc2cc(-c3nc([C@H]4CC[C@H](C(=O)O)CC4)n4ncnc(N)c34)[nH]c12 [OSI-027] (partner 0.5 µM)
In short: (§1)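 Relative viability was taken as the ratio of nuclei in treated wells to nuclei in vehicle wells. Lung cancer cell lines in 1536-well plates received compounds by pin tool one day after seeding, either one drug alone or a fixed anchor-drug dose plus five library-drug doses (not always all listed) in √10 steps. Nuclei were counted on 4× images after 5 days of treatment, and values are medians of duplicate plates.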

XMD14-99 + Crizotinib = compound: CN1CCN(CC1)C2=CC(=C(C=C2)NC3=NC(=C(S3)C(=O)C4=C(C=CC=C4Cl)Cl)N)OC [XMD14-99] + C[C@@H](Oc1cc(-c2cnn(C3CCNCC3)c2)cnc1N)c1c(Cl)ccc(F)c1Cl [Crizotinib] (partner 1 µM)
In short: as §1

XMD14-99 + Decitabine = compound: CN1CCN(CC1)C2=CC(=C(C=C2)NC3=NC(=C(S3)C(=O)C4=C(C=CC=C4Cl)Cl)N)OC [XMD14-99] + Nc1ncn([C@H]2C[C@H](O)[C@@H](CO)O2)c(=O)n1 [Decitabine] (partner 2 µM)
In short: as §1

AZD1208 + OSI-027 = compound: N[C@@H]1CCCN(c2c(/C=C3\SC(=O)NC3=O)cccc2-c2ccccc2)C1 [AZD1208] + COc1cccc2cc(-c3nc([C@H]4CC[C@H](C(=O)O)CC4)n4ncnc(N)c34)[nH]c12 [OSI-027] (partner 0.5 µM)
In short: as §1

Cell Line | relative viability (XMD14-99 + OSI-027; first compound 0.08 µM) | relative viability (XMD14-99 + OSI-027; first compound 0.8 µM) | relative viability (XMD14-99 + OSI-027; first compound 2.53 µM) | relative viability (XMD14-99 + OSI-027; first compound 8 µM) | relative viability (XMD14-99 + Crizotinib; first compound 0.08 µM) | relative viability (XMD14-99 + Crizotinib; first compound 0.8 µM) | relative viability (XMD14-99 + Crizotinib; first compound 2.53 µM) | relative viability (XMD14-99 + Crizotinib; first compound 8 µM) | relative viability (XMD14-99 + Decitabine; first compound 0.08 µM) | relative viability (XMD14-99 + Decitabine; first compound 0.8 µM) | relative viability (XMD14-99 + Decitabine; first compound 2.53 µM) | relative viability (XMD14-99 + Decitabine; first compound 8 µM) | relative viability (AZD1208 + OSI-027; first compound 0.08 µM) | relative viability (AZD1208 + OSI-027; first compound 0.253 µM) | relative viability (AZD1208 + OSI-027; first compound 0.8 µM) | relative viability (AZD1208 + OSI-027; first compound 2.53 µM) | relative viability (AZD1208 + OSI-027; first compound 8 µM)
NCI-H2087 | 0.524 | 0.487 | 0.45 | 0.299 | 0.773 | 0.896 | 0.632 | 0.463 | 0.282 | 0.264 | 0.234 | 0.192 | 0.518 | 0.508 | 0.427 | 0.513 | 0.445
NCI-H1734 | 0.556 | 0.524 | 0.55 | 0.437 | 0.634 | 0.713 | 0.618 | 0.638 | 0.505 | 0.494 | 0.477 | 0.477 | 0.51 | 0.534 | 0.495 | 0.468 | 0.342
EMC-BAC-2 | 0.362 | 0.384 | 0.313 | 0.292 | 0.801 | 0.775 | 0.743 | 0.62 | 0.973 | 0.898 | 0.838 | 0.802 | 0.364 | 0.37 | 0.346 | 0.296 | 0.315
NCI-H2009 | 0.611 | 0.607 | 0.508 | 0.273 | 1 | 0.939 | 0.997 | 0.767 | 0.342 | 0.343 | 0.378 | 0.371 | 0.63 | 0.645 | 0.537 | 0.569 | 0.553
NCI-H596 | 0.675 | 0.901 | 0.609 | 0.643 | 1.01 | 0.974 | 1.04 | 1.02 | 1.03 | 0.943 | 0.858 | 0.964 | 0.666 | 0.817 | 0.62 | 0.56 | 0.359
NCI-H650 | 0.544 | 0.58 | 0.464 | 0.42 | 0.613 | 0.728 | 0.684 | 0.623 | 0.272 | 0.318 | 0.292 | 0.319 | 0.574 | 0.435 | 0.477 | 0.394 | 0.398
NCI-H1792 | 0.71 | 0.686 | 0.657 | 0.413 | 1.02 | 0.956 | 1.01 | 0.709 | 0.497 | 0.499 | 0.549 | 0.326 | 0.679 | 0.778 | 0.614 | 0.607 | 0.61
SW 1573 | 0.629 | 0.758 | 0.599 | 0.493 | 0.792 | 0.878 | 0.793 | 0.757 | 0.451 | 0.545 | 0.475 | 0.334 | 0.397 | 0.548 | 0.451 | 0.381 | 0.348
